From patent US6833456B2, “Indolyl-urea derivatives of thienopyridines useful as antiangiogenic agents, and methods for their use” (Agouron Pharmaceuticals, Inc., priority 2002, dated 2004)
“And” between values parts separate entries of the source, which are not always exact repeats. Equal entries are not always repeated.

Experiments:
[1] = molecular target: T1, unphosphorylated VEGF-R2Δ50 (FLVK) (Homo sapiens, UniProt P35968, DEL940-989/E990V); assay: VEGF-R2 coupled spectrophotometric assay, unphosphorylated construct (FLVK); format: biochemical; conditions: for inhibition at 0.05 µM: percent inhibition at 50 nM
T1 construct: VEGF-R2Δ50 contains residues 806-939 and 990-1171; made in house; host or cells: baculovirus/insect cell system
Method in brief: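 Human VEGF-R2Δ50 cytosolic kinase (residues 806-939/990-1171, E990V), baculovirus-expressed, unphosphorylated form. PK/LDH-coupled NADH oxidation at 340 nm with 20 mM poly(E4Y1), 3 mM ATP, 60 mM MgCl2, 2 mM MnCl2, 200 mM HEPES pH 7.5, 5-40 nM enzyme; Ki fitted by Morrison equation.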

Mouse PK assay = format: in vivo, B6 female mice; conditions: po; for AUC / Cmax: female, B6, mouse, plasma, 50 mg/kg; for Cmax: p.o., read-out: Mouse Cmax, po ng-h/mL
Method in brief: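 Plasma levels were measured by HPLC with UV detection after acetonitrile precipitation, using extracted standards, in blood taken up to 4 h (0.5, 1, 2, 4 h) post-dose. Dosing: 50 mg/kg orally or intraperitoneally to two groups of four female B6 mice, vehicle PEG 400:acidified H2O 30:70 suspension.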

[2] = Human liver microsome (HLM) assay; format: in vitro ADME; conditions: human liver microsomes
Protocol: Compound metabolism in human liver microsomes was measured by LC-MS analytical assay procedures as follows. First, human liver microsomes (HLM) were thawed and diluted to 5 mg/mL with cold 100 mM potassium phosphate (KPO4) buffer. Appropriate amounts of KPO4 buffer, NADPH-regenerating solution (containing B-NADP, glucose-6-phosphate, glucose-6-phosphate dehydrogenase, and MgCl2), and HLM were preincubated in 13×100 mm glass tubes at 37° C. for 10 min. (3 tubes per test compound—triplicate). Test compound (5 μM final) was added to each tube to initiate reaction and was mixed by gentle vortexing, followed by incubation at 37° C. […] Samples were centrifuged at 4000 rpm for 20 min. to precipitate proteins and salt (Beckman Allegra 6KR, S/N ALK98DO6, #634). Supernatant was transferred to new 12×75 mm glass tubes and evaporated by Speed-Vac centrifugal vacuum evaporator. Samples were reconstituted in 200 μL 0.1% formic acid/acetonitrile (90/10) and vortexed vigorously to dissolve. The samples were then transferred to separate polypropylene microcentrifuge tubes and centrifuged at 14000×g for 10 min. (Fisher Micro 14, S/N M0017580). […]
The combined compound samples were injected into the LC-MS system, composed of a Hewlett-Packard HP1100 diode array HPLC and a Micromass Quattro II triple quadruple mass spectrometer operating in positive electrospray SIR mode (programmed to scan specifically for the molecular ion of each test compound). Each test compound peak was integrated at each timepoint. […]

[3] = tested on: human umbilical vein endothelial cells (HUVEC); assay: HUVEC+VEGF proliferation assay; format: cell-based; conditions: Homo sapiens, HUVEC, 72 h, VEGF 6 ng/mL, MTT
Method in brief: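 HUVEC (passage 3-4), serum-starved 24 h in F12K + 1% FBS, were pre-treated with compound for 1 h (0.1% DMSO final). They were then stimulated with VEGF at 6 ng/mL final. Proliferation was measured after 72 h by MTT dye reduction (4 h), with absorbance read at 595 nm.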

PDGFRβ = molecular target: T2, PDGFRβ (Homo sapiens, UniProt P09619); assay: PAE-PDGFRβ phosphorylation in PAE-PDGFRB cells assay; format: cell-based; conditions: PAE cells overexpressing human PDGFRβ, PDGF-BB stimulated; read-out: PAE PDGFR autophos IC50
T2 construct: expressed in transfected cells; host or cells: porcine aorta endothelial (PAE) cells
Method in brief: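 PAE cells overexpressing human PDGFRβ, serum-starved 16 h (0.1% FBS), compound 1 h at 37° C (0.5% DMSO), then 1 μg/mL PDGF-BB with 2 mM Na3VO4 for 8 min. Receptor captured by anti-PDGFRβ, phosphotyrosine detected by HRP-PY20/TMB at 450 nm; IC50 by four-parameter fit.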

HUVEC = assay: bFGF HUVEC proliferation; format: cell-based, human; conditions: Homo sapiens, HUVEC, bFGF stimulated HUVEC
KDR (VEGFR2) = molecular target: T3, KDR (VEGFR2) (Homo sapiens, UniProt P35968); assay: KDR (VEGFR2) phosphorylation in PAE-KDR cells assay; format: cell-based; conditions: PAE cells overexpressing human KDR, VEGF stimulated; read-out: PAE KDR autophos IC50
T3 construct: expressed in transfected cells; host or cells: porcine aorta endothelial (PAE) cells
Protocol: This assay determines the ability of a test compound to inhibit the autophosphorylation of KDR in porcine aorta endothelial (PAE)-KDR cells. PAE cells that overexpress human KDR were used in this assay. The cells were cultured in Ham's F12 media supplemented with 10% fetal bovine serum (FBS) and 400 ug/mL G418. Thirty thousands cells were seeded into each well of a 96-well plate in 75 μL of growth media and allowed to attach for 6 hours at 37° C. Cells were then exposed to the starvation media (Ham's F12 media supplemented with 0.1% FBS) for 16 hours. After the starvation period was over, 10 μL of test agent in 5% DMSO in starvation media were added to the test wells and 10 μL of the vehicle (5% DMSO in starvation media) were added into the control wells. The final DMSO concentration in each well was 0.5%. Plates were incubated at 37° C. for 1 hour and the cells were then stimulated with 500 ng/ml VEGF (commercially available from R & D System) in the presence of 2 mM Na3VO4 for 8 minutes. The cells were washed once with 1 mm Na3VO4 in HBSS and lysed by adding 50 μL per well of lysis buffer. One hundred μL of dilution buffer were then added to each well and the diluted cell lysate was transferred to a 96-well goat ant-rabbit coated plate (commercially available from Pierce) which was pre-coated with Rabbit anti Human Anti-flk-1 C-20 antibody (commercially available from Santa Cruz). The plates were incubated at room temperature for 2 hours and washed seven times with 1% Tween 20 in PBS. HRP-PY20 (commercially available from Santa Cruz) was diluted and added to the plate for a 30-minute incubation. Plates were then washed again and TMB peroxidase substrate (commercially available from Kirkegaard & Perry) was added for a 10-minute incubation. One hundred μL of 0.09 N H2SO4 was added to each well of the 96-well plates to stop the reaction. Phosphorylation status was assessed by spectrophotometer reading at 450 nm. IC50 values were calculated by curve fitting using a four-parameter analysis.

T1 sequence (P35968 with tags, fused parts or gaps DEL940-989/E990V limits assumed): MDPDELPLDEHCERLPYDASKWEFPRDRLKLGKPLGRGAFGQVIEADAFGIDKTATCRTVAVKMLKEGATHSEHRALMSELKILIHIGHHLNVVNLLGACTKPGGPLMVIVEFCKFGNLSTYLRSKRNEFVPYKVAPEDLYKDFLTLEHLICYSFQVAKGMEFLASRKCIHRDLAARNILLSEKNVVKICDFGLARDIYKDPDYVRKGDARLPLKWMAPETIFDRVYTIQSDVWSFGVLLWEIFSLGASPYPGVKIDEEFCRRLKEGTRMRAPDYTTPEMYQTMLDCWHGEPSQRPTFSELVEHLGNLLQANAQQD
T3 sequence (P35968 20-1356): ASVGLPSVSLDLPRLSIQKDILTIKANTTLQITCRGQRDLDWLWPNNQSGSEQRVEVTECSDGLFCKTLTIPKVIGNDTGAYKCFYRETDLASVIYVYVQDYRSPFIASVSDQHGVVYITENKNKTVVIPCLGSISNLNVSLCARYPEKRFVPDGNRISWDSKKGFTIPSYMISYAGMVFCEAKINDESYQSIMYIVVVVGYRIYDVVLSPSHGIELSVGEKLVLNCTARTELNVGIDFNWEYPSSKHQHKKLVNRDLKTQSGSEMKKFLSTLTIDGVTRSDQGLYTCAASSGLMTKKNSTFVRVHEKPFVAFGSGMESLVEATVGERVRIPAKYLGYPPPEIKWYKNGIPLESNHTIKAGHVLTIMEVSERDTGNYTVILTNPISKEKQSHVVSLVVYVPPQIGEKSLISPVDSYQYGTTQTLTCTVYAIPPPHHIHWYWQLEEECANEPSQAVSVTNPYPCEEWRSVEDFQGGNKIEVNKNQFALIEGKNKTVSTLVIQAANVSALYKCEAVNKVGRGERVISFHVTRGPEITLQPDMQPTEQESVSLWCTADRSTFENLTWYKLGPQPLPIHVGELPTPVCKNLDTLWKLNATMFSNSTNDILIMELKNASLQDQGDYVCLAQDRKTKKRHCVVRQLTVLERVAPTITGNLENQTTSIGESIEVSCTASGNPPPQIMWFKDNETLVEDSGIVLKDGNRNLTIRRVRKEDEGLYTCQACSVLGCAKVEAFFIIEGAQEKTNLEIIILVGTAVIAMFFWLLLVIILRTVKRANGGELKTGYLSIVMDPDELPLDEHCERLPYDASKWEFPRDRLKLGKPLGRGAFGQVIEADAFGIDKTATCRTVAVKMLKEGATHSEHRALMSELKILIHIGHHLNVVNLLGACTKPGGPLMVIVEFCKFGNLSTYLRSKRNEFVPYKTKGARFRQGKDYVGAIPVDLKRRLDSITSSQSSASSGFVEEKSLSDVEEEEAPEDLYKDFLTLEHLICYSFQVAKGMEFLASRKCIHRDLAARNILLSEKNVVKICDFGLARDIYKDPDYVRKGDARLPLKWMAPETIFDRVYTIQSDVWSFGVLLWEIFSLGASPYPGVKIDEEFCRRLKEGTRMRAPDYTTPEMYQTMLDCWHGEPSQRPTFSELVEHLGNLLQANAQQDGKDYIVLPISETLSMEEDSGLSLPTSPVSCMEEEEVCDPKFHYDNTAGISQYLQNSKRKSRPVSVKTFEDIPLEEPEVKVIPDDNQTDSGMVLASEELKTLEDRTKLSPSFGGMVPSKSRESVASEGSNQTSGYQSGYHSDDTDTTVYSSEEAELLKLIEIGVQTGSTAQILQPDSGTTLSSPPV
T2 sequence (P09619 33-1106): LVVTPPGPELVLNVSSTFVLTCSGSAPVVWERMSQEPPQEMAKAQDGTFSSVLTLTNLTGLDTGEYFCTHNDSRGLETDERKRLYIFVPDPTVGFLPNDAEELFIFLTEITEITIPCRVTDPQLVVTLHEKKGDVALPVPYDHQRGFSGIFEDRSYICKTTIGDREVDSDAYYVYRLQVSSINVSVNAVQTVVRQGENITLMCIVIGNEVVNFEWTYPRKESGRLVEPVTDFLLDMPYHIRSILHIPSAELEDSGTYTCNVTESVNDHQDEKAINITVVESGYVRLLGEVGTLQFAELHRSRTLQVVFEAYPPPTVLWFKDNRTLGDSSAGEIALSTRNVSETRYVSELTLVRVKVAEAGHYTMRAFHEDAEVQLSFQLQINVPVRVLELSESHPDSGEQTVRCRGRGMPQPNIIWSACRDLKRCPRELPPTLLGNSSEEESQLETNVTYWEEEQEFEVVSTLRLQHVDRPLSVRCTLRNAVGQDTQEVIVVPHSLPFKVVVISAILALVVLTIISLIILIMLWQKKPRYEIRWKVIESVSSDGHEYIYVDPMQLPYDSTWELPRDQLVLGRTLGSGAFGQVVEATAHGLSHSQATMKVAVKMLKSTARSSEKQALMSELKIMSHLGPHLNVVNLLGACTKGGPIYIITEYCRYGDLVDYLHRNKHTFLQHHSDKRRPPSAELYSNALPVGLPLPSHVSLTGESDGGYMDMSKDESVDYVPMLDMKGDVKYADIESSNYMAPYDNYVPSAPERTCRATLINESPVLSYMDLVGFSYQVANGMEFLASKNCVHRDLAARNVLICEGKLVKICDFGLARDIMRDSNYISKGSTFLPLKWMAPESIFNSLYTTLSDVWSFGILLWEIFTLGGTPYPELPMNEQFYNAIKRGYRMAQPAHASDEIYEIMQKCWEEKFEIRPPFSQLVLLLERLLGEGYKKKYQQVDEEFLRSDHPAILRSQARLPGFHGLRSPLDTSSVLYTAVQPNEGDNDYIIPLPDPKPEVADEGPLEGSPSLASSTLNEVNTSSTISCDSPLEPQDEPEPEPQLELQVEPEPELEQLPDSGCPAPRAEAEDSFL

Compound	inhibition at 0.05 µM [1] [%]	AUC (Mouse PK assay) [ng·h/mL]	Cmax (Mouse PK assay) [ng/mL]	Mouse Cmin, po (Mouse PK assay) [ng/mL]	% remain (HLM-NADPH, 0.5 h) [2] [%]	% remain (HLM-UDPGA, 0.5 h) [2] [%]	Ki [1] [nM]	IC50 [3] [nM]	IC50 (PDGFRβ)	IC50 (HUVEC) [nM]	IC50 (KDR (VEGFR2)) [nM]
Cc1cc2cc(Nc3ccnc4cc(-c5nccn5C)sc34)ccc2n1C(=O)NC(C)C [Example 2f, 5-(2-[1-methyl-1H-imidazol-2-yl]thieno[3,2-b]pyridin-7-ylamino)-2-methylindole-1-carboxylic acid isopropylamide]	2	10600	7700	163	70.9	119.4	–	–	–	–	–
Cc1cc2cc(Nc3ccnc4cc(C(=O)N5CCC[C@H]5CO)sc34)ccc2n1C(=O)NC(C)C [Example 2g, 5-(2-[(S)-2-(hydroxymethyl)pyrrolidine-1-carbonyl]thieno[3,2-b]pyridin-7-ylamino)-2-methylindole-1-carboxylic acid isopropylamide]	82	542	252	6	106	113.4	29.6	> 33.3	–	–	–
CNC(=O)n1c(C)cc2cc(Oc3ccnc4cc(C(=O)N(C)CCO)sc34)ccc21 [Example 3n, 7-(2-Methyl-1-methylcarbamoyl-1H-indol-5-yloxy)-thieno[3,2-b]pyridine-2-carboxylic acid (2-hydroxy-ethyl)-methyl-amide]	88	–	–	–	–	–	0.505	0.267	76.3 nM	87	–
CNC(=O)n1c(C)cc2cc(Oc3ccnc4cc(C(=O)N5CC(F)(F)C[C@H]5CO)sc34)ccc21 [Example 3p, 5-[2-(4,4-Difluoro-2-hydroxymethyl-pyrrolidine-1-carbonyl)-thieno[3,2-b]pyridin-7-yloxy]-2-methyl-indole-1-carboxylic acid methyl-amide]	81	–	–	–	–	–	0.98	0.33	212 nM	227	–
CO[C@@H]1CCN(C(=O)c2cc3nccc(Oc4ccc5c(c4)cc(C)n5C(=O)NC4CC4)c3s2)C1 [Example 4k, 5-[2-(3R-Methoxy-pyrrolidine-1-carbonyl)-thieno[3,2-b]pyridin-7-yloxy]-2-methyl-indole-1-carboxylic acid cyclopropylamide]	96	–	–	–	–	–	0.1	–	10 nM	5.8	0.569
COC[C@@H]1CCCN1C(=O)c1cc2nccc(Oc3ccc4c(cc(C)n4C(=O)NC4CC4)c3F)c2s1 [Example 5b]	98	–	–	–	–	–	0.504	–	13.1 nM	13.6	0.5
CNC(=O)n1c(C)cc2cc(Oc3ccnc4cc(C(=O)N5CC[C@@H](N(C)C)C5)sc34)ccc21 [Example 8g, 5-[(2-{[(3R)-3-(Dimethylamino)pyrrolidin-1-yl]carbonyl}thieno[3,2-b]pyridin-7-yl)oxy]-N,2-dimethyl-1H-indole-1-carboxamide]	99	–	–	–	–	–	0.643	0.15	15.4 nM	9	–
Cc1cc2cc(Oc3ccnc4cc(C(=O)N5CC[C@@H](N(C)C)C5)sc34)ccc2n1C(=O)NCCO [Example 8l, 5-[(2-{[(3R)-3-(Dimethylamino)pyrrolidin-1-yl]carbonyl}thieno[3,2-b]pyridin-7-yl)oxy]-N-(2-hydroxyethyl)-2-methyl-1H-indole-1-carboxamide]	88	–	–	–	–	–	0.88	1.5	18.8 nM	63	–
C#CCNC(=O)n1c(C)cc2cc(Oc3ccnc4cc(C(=O)N5CCC[C@@H]5COC)sc34)ccc21 [Example 8p, 5-[2-(2R-Methoxymethyl-pyrrolidine-1-carbonyl)-thieno[3,2-b]pyridin-7-yloxy]-2-methyl-indole-1-carboxylic acid prop-2-ynylamide]	98	–	–	–	–	–	0.143	0.137	13 nM	197	–
CCCNC(=O)n1c(C)cc2cc(Oc3ccnc4cc(C(=O)N5CC[C@H](OC)C5)sc34)ccc21 [Example 9d, 5-[2-(3S-Methoxy-pyrrolidine-1-carbonyl)-thieno[3,2-b]pyridin-7-yloxy]-2-methyl-indole-1-carboxylic acid propylamide]	99	–	–	–	–	–	0.228	–	25 nM	143	1.47
C#CCNC(=O)n1c(C)cc2cc(Oc3ccnc4cc(C(=O)N5CC[C@H](O)C5)sc34)ccc21 [Example 9j, 5-[2-(3S-Hydroxy-pyrrolidine-1-carbonyl)-thieno[3,2-b]pyridin-7-yloxy]-2-methyl-indole-1-carboxylic acid prop-2-ynylamide]	97	–	–	–	–	–	0.162	0.29	18 nM and 20 nM	81	–
CCC(=O)n1c(C)cc2cc(Oc3ccnc4cc(C(=O)N5CC[C@H](OC)C5)sc34)ccc21 [Example 10a, 2-{[(3S)-3-Methoxypyrrolidin-1-yl]carbonyl}-7-[(2-methyl-1-propionyl-1H-indol-5-yl)oxy]thieno[3,2-b]pyridine]	64	–	–	–	–	–	4.7	0.79	–	21	1.2
CNC(=O)n1ccc2cc(Oc3ccnc4cc(-c5nc(C(C)(C)O)cs5)sc34)ccc21 [Example 31, 5-{2-[4-(1-Hydroxy-1-methyl-ethyl)-thiazol-2-yl]-thieno[3,2-b]pyridin-7-yloxy}-indole-1-carboxylic acid methylamide]	97	–	–	–	–	–	0.462	0.16	8.1 nM and 6.3 nM	101	–
